In ChEMBL document CHEMBL1128946, “Novel inhibitors of influenza sialidases related to GG167 structure-activity, crystallographic and Molecular dynamics studies with 4H-pyran-2-carboxylic acid 6-carboxamides” (Bioorg Med Chem Lett, 1996):

These compounds were tested against Neuraminidase (Influenza A virus (A/Puerto Rico/8/1934(H1N1)), UniProt P03468) (assay: Inhibition of influenza A sialidase (neuraminidase)).
Design: species or system Influenza A virus (strain: A/PR/8/34)

| Compound | IC50 [nM] |
| --- | --- |
| CC(=O)N[C@H]1[C@H]([C@H](O)[C@H](O)CO)OC(C(=O)O)=C[C@@H]1N | 300 |
| CCN(CC)C(=O)[C@@H]1OC(C(=O)O)=C[C@H](N)[C@H]1NC(C)=O | 3 |
| CC(=O)N[C@@H]1[C@@H](N)C=C(C(=O)O)O[C@H]1C(=O)NCCc1ccccc1 | 12000 |
| CCCCN(CCCC)C(=O)[C@@H]1OC(C(=O)O)=C[C@H](N=C(N)N)[C@H]1NC(C)=O | 16 |
| CCN(CCc1ccccc1)C(=O)[C@@H]1OC(C(=O)O)=C[C@H](N)[C@H]1NC(C)=O | 5 |
| CNC(=O)[C@@H]1OC(C(=O)O)=C[C@H](N)[C@H]1NC(C)=O | 190000 |
| CC(=O)N[C@@H]1[C@@H](N)C=C(C(=O)O)O[C@H]1C(=O)N(C)CCc1ccccc1 | 320 |
| CCCN(CCc1ccccc1)C(=O)[C@@H]1OC(C(=O)O)=C[C@H](N=C(N)N)[C@H]1NC(C)=O | 5 |
| CNC(=O)[C@@H]1OC(C(=O)O)=C[C@H](N=C(N)N)[C@H]1NC(C)=O | 7000 |
| CCNC(=O)[C@@H]1OC(C(=O)O)=C[C@H](N)[C@H]1NC(C)=O | 13000 |
| CC(=O)N[C@@H]1[C@@H](N=C(N)N)C=C(C(=O)O)O[C@H]1C(=O)N(C)C | 25 |
| CCCN(CCc1ccc(-c2ccccc2)cc1)C(=O)[C@@H]1OC(C(=O)O)=C[C@H](N)[C@H]1NC(C)=O | 3 |
| CCN(CC)C(=O)[C@@H]1OC(C(=O)O)=C[C@H](NC(=N)N)[C@H]1NC(C)=O | 1 |
| CCCN(CCC)C(=O)[C@@H]1OC(C(=O)O)=C[C@H](N)[C@H]1NC(C)=O | 3 |
